Test results as given in ChEMBL document CHEMBL4052642, “4-Methyl-6,7-dihydro-4H-triazolo[4,5-c]pyridine-Based P2X7 Receptor Antagonists: Optimization of Pharmacokinetic Properties Leading to the Identification of a Clinical Candidate” (J Med Chem, 2017).
Values after ≈ are worked out from the molar mass of the structure shown. Blank lines part the entries; values can stand above or below the compound they belong to.

Tests used:
Rattus norvegicus [1] = experiment: Toxicity in rat assessed as autoinduction at 50 to 500 mg/kg administered via oral gavage on day 1 and day 5; assay type: organism-based; conditions: in vivo
Rattus norvegicus [2] = experiment: Toxicity in rat assessed as increase in liver weight at 50 to 500 mg/kg administered via oral gavage on day 1 and day 4; assay type: organism-based; conditions: in vivo
[3] = Drug metabolism in cynomolgus monkey liver microsomes assessed as oxidation of methyl group on pyrimidine at 1 uM after 5 to 60 mins by LC-MS/MS analysis; assay type: ADME, Macaca fascicularis, microsome
Liver [4] = experiment: Drug metabolism in dog liver microsomes assessed as oxidation of methyl group on pyrimidine at 1 uM after 5 to 60 mins by LC-MS/MS analysis; assay type: ADME, Canis lupus familiaris, microsome
Liver [5] = experiment: Drug metabolism in rat liver microsomes assessed as oxidation of methyl group on pyrimidine at 1 uM after 5 to 60 mins by LC-MS/MS analysis; assay type: ADME, microsome
Liver [6] = experiment: Drug metabolism in human liver microsomes assessed as oxidation of methyl group on pyrimidine at 1 uM after 5 to 60 mins by LC-MS/MS analysis; assay type: ADME, microsome
Liver [7] = experiment: Drug metabolism in mouse liver microsomes assessed as oxidation of methyl group on pyrimidine at 1 uM after 5 to 60 mins by LC-MS/MS analysis; assay type: ADME, microsome
Cytochrome P450 2C19 [8] = biological target: T1, Cytochrome P450 2C19 (Homo sapiens, UniProt P33261); experiment: Drug metabolism assessed as recombinant human CYP2C19-mediated metabolite formation; assay type: ADME; conditions: recombinant enzyme
[9] = Oral bioavailability in beagle dog at 2.5 mg/kg by LC-MS/MS analysis; assay type: ADME, organism-based, Canis lupus familiaris; conditions: beagle, in vivo
[10] = Half life in beagle dog at 0.5 mg/kg, iv by LC-MS/MS analysis; assay type: ADME, organism-based, Canis lupus familiaris; conditions: in vivo
[11] = Volume of distribution at steady state in beagle dog at 0.5 mg/kg, iv or 2.5 mg/kg, po by LC-MS/MS analysis; assay type: ADME, organism-based, Canis lupus familiaris; conditions: in vivo, read-out: Vdss
[12] = Clearance in beagle dog at 0.5 mg/kg, iv or 2.5 mg/kg, po by LC-MS/MS analysis; assay type: ADME, organism-based, Canis lupus familiaris; conditions: in vivo
Rattus norvegicus [13] = experiment: Ex vivo receptor occupancy at P2X7 in po dosed Sprague-Dawley rat brain after 60 mins by autoradiography; assay type: functional; conditions: 1 h
Rattus norvegicus [14] = experiment: Ex vivo receptor occupancy at P2X7 in po dosed Sprague-Dawley rat brain assessed as plasma concentration required to achieve EC50 after 60 mins by autoradiography; assay type: functional, organism-based
[15] = Oral bioavailability in Sprague-Dawley rat at 5 mg/kg by LC-MS/MS analysis; assay type: ADME, organism-based; conditions: in vivo
[16] = Half life in Sprague-Dawley rat at 1 mg/kg, iv by LC-MS/MS analysis; assay type: ADME, organism-based; conditions: in vivo
[17] = Volume of distribution at steady state in Sprague-Dawley rat at 1 mg/kg, iv or 5 mg/kg, po by LC-MS/MS analysis; assay type: ADME, organism-based; conditions: in vivo, read-out: Vdss
[18] = Solubility of compound in phosphate buffer at pH 7 after 3 days; assay type: physicochemical
[19] = Clearance in Sprague-Dawley rat at 1 mg/kg, iv or 5 mg/kg, po by LC-MS/MS analysis; assay type: ADME, organism-based; conditions: in vivo
[20] = Protein binding in rat brain at 5 uM after 5 hrs by equilibrium dialysis method; assay type: ADME, tissue-based; conditions: read-out: PB (converted)
[21] = Solubility of compound in phosphate buffer at pH 2 after 3 days; assay type: physicochemical
[22] = Protein binding in human plasma at 1 uM after 6 hrs by equilibrium dialysis method; assay type: ADME, cell-free; conditions: read-out: PPB (converted)
[23] = Protein binding in mouse plasma at 1 uM after 6 hrs by equilibrium dialysis method; assay type: ADME, cell-free; conditions: read-out: PPB (converted)
[24] = Protein binding in rat plasma at 1 uM after 6 hrs by equilibrium dialysis method; assay type: ADME, cell-free; conditions: read-out: PPB (converted)
P2X purinoceptor 7 = P2X purinoceptor 7 (Homo sapiens, UniProt Q99572); experiment: Antagonist activity at human P2X7
Cytochrome P450 3A4 = Cytochrome P450 3A4 (Homo sapiens, UniProt P08684); experiment: Inhibition of CYP3A4 in human liver microsomes using midazolam as substrate after 15 mins by LC-MS/MS analysis; assay type: ADME
Cytochrome P450 2D6 = Cytochrome P450 2D6 (Homo sapiens, UniProt P10635); experiment: Inhibition of CYP2D6 in human liver microsomes using dextromethorphan as substrate after 15 mins by LC-MS/MS analysis; assay type: ADME
Cytochrome P450 2C9 = Cytochrome P450 2C9 (Homo sapiens, UniProt P11712); experiment: Inhibition of CYP2C9 in human liver microsomes using diclofenac as substrate after 15 mins by LC-MS/MS analysis; assay type: ADME
Cytochrome P450 2C19 [25] = biological target: T1, Cytochrome P450 2C19; experiment: Inhibition of CYP2C19 in human liver microsomes using S-mephenytoin as substrate after 15 mins by LC-MS/MS analysis; assay type: ADME
Cytochrome P450 2C8 = biological target: T2, Cytochrome P450 2C8 (Homo sapiens, UniProt P10632); experiment: Inhibition of CYP2C8 in human liver microsomes using paclitaxel as substrate after 15 mins by LC-MS/MS analysis; assay type: ADME
T2 sequence (P10632 whole entry): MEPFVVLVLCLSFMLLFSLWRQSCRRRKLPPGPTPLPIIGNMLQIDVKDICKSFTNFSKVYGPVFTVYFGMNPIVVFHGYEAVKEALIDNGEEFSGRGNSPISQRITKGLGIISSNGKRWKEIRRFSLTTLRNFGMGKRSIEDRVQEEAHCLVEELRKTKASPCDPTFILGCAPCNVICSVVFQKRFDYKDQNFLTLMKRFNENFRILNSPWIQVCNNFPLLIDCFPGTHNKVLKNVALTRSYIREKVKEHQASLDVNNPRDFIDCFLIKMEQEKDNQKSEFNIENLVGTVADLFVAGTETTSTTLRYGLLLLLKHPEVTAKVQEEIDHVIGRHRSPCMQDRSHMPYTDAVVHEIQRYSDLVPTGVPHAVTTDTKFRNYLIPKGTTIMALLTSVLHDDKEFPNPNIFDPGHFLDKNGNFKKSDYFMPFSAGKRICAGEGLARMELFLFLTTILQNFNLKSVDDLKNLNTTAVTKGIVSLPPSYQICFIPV

Cytochrome P450 1A2 = biological target: T3, Cytochrome P450 1A2 (Homo sapiens, UniProt P05177); experiment: Inhibition of CYP1A2 in human liver microsomes using phenacetin as substrate after 15 mins by LC-MS/MS analysis; assay type: ADME
T3 sequence (P05177 whole entry): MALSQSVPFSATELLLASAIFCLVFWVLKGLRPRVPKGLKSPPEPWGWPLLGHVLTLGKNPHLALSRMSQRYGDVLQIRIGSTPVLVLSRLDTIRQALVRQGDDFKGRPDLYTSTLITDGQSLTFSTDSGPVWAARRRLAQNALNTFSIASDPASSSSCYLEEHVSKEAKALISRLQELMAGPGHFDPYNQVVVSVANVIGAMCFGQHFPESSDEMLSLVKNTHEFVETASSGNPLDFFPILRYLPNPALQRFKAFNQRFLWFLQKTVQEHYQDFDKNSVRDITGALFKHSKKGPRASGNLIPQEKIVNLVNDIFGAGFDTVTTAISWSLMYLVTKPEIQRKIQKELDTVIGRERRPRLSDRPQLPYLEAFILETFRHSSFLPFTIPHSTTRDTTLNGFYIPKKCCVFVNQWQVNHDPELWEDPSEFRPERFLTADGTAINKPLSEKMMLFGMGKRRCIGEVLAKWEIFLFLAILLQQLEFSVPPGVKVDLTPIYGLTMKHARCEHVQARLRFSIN

Rattus norvegicus [26] = experiment: Inhibition of Bz-ATP-induced IL-1beta release in sc dosed Sprague-Dawley rat hippocampus preincubated for 1 hr followed by Bz-ATP challenge measured after 2 hrs by microdialysis method; assay type: functional, organism-based
Rattus norvegicus [27] = experiment: Ex vivo receptor occupancy at P2X7 in sc dosed Sprague-Dawley rat brain after 60 mins by autoradiography; assay type: functional
[28] = Oral bioavailability in beagle dog at 3 mg/kg by LC-MS/MS analysis; assay type: ADME, organism-based, Canis lupus familiaris; conditions: in vivo
[29] = Half life in beagle dog at 1 mg/kg, iv by LC-MS/MS analysis; assay type: ADME, organism-based, Canis lupus familiaris; conditions: in vivo
[30] = Volume of distribution at steady state in beagle dog at 1 mg/kg, iv or 3 mg/kg, po by LC-MS/MS analysis; assay type: ADME, organism-based, Canis lupus familiaris; conditions: in vivo, read-out: Vdss
[31] = Clearance in beagle dog at 1 mg/kg, iv or 3 mg/kg, po by LC-MS/MS analysis; assay type: ADME, organism-based, Canis lupus familiaris; conditions: in vivo
[32] = biological target: Voltage-gated inwardly rectifying potassium channel KCNH2 (Homo sapiens, UniProt Q12809); experiment: Inhibition of [3H]-dofetilide binding to human ERG expressed in HEK293 cells; assay type: cell-based
Chain of Voltage-gated inwardly rectifying potassium channel KCNH2 (Q12809 whole entry): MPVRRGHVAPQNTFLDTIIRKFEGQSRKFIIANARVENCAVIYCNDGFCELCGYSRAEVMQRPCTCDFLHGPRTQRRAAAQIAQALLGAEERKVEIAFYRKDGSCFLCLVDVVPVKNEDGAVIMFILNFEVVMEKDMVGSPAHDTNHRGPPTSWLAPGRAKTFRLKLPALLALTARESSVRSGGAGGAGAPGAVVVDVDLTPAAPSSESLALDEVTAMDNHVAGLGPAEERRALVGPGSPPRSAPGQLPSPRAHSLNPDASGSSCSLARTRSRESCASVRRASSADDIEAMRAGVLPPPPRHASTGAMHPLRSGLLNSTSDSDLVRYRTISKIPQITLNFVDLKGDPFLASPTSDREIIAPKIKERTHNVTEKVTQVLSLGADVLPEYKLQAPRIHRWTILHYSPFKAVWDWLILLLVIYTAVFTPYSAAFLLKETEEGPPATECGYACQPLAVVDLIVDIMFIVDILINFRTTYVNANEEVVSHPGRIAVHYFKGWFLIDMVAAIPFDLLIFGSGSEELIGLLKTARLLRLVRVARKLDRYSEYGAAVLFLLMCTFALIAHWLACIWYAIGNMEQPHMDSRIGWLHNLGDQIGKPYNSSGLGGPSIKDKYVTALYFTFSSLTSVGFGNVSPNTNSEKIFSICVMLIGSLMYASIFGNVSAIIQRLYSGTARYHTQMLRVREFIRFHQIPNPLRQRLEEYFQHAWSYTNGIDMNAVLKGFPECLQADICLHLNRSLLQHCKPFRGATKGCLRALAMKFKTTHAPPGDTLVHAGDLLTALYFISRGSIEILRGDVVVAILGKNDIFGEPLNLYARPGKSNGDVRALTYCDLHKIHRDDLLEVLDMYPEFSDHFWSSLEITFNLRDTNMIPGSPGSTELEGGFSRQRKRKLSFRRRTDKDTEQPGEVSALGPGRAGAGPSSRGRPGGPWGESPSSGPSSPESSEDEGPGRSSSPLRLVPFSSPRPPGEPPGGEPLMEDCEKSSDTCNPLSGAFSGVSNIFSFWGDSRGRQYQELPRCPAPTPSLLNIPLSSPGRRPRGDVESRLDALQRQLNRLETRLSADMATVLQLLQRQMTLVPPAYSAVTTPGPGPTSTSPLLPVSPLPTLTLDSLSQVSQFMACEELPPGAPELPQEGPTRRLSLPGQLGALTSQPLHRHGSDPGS

T1 sequence (P33261 whole entry): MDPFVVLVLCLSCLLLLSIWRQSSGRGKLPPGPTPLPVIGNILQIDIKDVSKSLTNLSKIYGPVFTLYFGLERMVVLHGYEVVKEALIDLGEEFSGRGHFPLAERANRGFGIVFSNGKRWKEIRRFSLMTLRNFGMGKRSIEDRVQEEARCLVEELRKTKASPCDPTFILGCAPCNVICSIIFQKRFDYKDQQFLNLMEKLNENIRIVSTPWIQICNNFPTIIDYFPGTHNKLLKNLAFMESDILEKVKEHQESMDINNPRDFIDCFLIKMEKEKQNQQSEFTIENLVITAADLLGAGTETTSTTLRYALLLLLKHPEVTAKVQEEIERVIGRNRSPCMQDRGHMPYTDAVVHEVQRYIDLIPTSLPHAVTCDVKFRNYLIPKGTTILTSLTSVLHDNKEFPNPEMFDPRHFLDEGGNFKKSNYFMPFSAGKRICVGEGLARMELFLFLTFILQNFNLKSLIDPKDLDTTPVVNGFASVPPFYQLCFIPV
Chain of Cytochrome P450 2D6 (P10635 whole entry): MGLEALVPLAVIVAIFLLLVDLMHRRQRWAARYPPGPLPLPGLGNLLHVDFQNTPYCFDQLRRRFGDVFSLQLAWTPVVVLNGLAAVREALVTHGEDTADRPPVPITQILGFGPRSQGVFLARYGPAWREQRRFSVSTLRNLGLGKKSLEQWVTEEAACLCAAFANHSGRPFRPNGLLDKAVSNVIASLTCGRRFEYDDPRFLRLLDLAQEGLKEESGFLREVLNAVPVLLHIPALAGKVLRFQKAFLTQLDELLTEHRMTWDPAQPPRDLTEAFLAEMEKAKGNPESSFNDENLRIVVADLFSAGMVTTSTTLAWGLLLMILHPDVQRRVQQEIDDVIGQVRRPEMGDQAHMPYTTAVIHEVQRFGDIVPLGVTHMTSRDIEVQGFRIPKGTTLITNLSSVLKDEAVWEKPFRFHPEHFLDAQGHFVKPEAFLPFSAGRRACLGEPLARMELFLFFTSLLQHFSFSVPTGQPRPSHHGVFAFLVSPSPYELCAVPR
Chain of Cytochrome P450 3A4 (P08684 whole entry): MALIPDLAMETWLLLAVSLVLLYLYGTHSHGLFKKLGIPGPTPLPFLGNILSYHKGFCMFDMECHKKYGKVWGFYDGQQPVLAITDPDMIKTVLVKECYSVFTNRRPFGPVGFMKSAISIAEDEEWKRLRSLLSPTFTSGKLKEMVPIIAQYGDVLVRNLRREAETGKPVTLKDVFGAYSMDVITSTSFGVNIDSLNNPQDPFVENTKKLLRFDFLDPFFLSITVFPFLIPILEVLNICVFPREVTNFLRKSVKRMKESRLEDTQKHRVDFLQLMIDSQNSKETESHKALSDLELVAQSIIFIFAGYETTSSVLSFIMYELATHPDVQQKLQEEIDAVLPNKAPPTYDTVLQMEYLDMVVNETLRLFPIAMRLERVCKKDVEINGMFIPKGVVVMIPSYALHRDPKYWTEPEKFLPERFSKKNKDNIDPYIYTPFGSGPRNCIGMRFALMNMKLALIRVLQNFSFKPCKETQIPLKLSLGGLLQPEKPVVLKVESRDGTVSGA
Chain of Cytochrome P450 2C9 (P11712 whole entry): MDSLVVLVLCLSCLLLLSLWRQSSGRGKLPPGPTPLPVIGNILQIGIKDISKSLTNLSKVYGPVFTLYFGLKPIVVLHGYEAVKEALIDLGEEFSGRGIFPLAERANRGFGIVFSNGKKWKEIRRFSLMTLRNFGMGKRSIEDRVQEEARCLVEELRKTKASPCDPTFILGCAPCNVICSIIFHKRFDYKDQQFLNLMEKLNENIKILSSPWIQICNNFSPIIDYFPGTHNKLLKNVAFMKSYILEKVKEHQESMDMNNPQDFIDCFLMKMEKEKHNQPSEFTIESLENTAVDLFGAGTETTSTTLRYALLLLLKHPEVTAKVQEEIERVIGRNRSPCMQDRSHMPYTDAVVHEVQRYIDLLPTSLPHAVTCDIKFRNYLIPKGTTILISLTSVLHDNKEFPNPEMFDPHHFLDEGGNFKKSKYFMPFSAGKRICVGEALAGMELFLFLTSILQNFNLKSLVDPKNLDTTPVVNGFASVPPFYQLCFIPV
Chain of P2X purinoceptor 7 (Q99572 whole entry): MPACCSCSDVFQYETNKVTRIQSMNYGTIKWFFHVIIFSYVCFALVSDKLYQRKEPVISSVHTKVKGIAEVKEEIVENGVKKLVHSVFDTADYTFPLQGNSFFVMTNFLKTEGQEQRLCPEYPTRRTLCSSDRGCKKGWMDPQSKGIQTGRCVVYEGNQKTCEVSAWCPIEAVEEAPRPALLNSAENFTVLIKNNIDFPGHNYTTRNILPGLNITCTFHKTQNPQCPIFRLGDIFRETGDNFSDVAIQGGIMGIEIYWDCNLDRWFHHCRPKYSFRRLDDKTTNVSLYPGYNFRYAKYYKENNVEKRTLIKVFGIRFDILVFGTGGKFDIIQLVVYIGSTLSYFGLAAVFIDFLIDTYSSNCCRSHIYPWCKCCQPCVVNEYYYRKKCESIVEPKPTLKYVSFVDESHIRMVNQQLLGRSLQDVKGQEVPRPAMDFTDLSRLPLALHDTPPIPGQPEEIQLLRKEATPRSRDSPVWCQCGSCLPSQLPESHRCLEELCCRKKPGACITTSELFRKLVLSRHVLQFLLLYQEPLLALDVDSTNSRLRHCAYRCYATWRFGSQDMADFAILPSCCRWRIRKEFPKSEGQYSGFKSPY

- Drug metabolism [3]: Metabolite_Detected
- Drug metabolism (Liver [4]): Metabolite_Detected
- Drug metabolism (Liver [5]): Metabolite_Detected
- Drug metabolism (Liver [6]): Metabolite_Detected
- Drug metabolism (Liver [7]): Metabolite_Detected
- Drug metabolism (Cytochrome P450 2C19 [8]): Metabolite_Detected
- bioavailability [9]: 86%
- half-life [10]: 0.7 h
- Vd [11]: 1.8 L/kg
- clearance [12]: 1.26 L/h/kg
- Cp (Rattus norvegicus [14]): 51 ng/mL
- bioavailability [15]: 3%
- half-life [16]: 0.8 h
- Vd [17]: 1.6 L/kg
- solubility at 72 h [18]: 283 µM (≈ 124 µg/mL)
- clearance [19]: 3.84 L/h/kg
- fraction unbound at 5 h, 5 µM [20]: 0.041
- solubility at 72 h [21]: 328 µM (≈ 143 µg/mL)
- fraction unbound at 6 h, 1 µM [22]: 0.085
- fraction unbound at 6 h, 1 µM [23]: 0.095
- fraction unbound at 6 h, 1 µM [24]: 0.095
Structure (SMILES): Cc1ccnc(-n2nnc3c2CCN(C(=O)c2cccc(C(F)(F)F)c2Cl)[C@@H]3C)n1
- Activity (Rattus norvegicus [1]): Toxic
- Activity (Rattus norvegicus [2]): Toxic
- ED50 (Rattus norvegicus [13]): 8.3 mg/kg

- IC50 (P2X purinoceptor 7): 0.01 to 0.013 µM
Structure (SMILES): O=C(NCC12CC3CC(CC(C3)C1)C2)c1cc(CCCNCCCO)ccc1Cl [AZD9056]

- IC50 (Cytochrome P450 3A4): 2.3 µM
- IC50 (Cytochrome P450 2D6): > 10 µM
- IC50 (Cytochrome P450 2C9): > 10 µM
- IC50 (Cytochrome P450 2C19 [25]): 4.3 µM
- IC50 (Cytochrome P450 2C8): > 10 µM
- IC50 (Cytochrome P450 1A2): > 10 µM
- Occ (Rattus norvegicus [27]): Dose-dependent effect
- bioavailability [15]: 77%
- bioavailability [28]: 65%
- half-life [29]: 2.4 h
- Vd [30]: 3.3 L/kg
- half-life [16]: 1.5 h
- Vd [17]: 3 L/kg
- clearance [31]: 1.98 L/h/kg
- solubility at 72 h [18]: 94.4 µM (≈ 39.9 µg/mL)
- clearance [19]: 2.76 L/h/kg
- fraction unbound at 5 h, 5 µM [20]: 0.05
- solubility at 72 h [21]: 48.2 µM (≈ 20.4 µg/mL)
- fraction unbound at 6 h, 1 µM [22]: 0.084
- fraction unbound at 6 h, 1 µM [23]: 0.053
- fraction unbound at 6 h, 1 µM [24]: 0.063
Structure (SMILES): C[C@@H]1c2nnn(-c3cnccn3)c2CCN1C(=O)c1cccc(C(F)(F)F)c1Cl
- inhibition (Rattus norvegicus [26]): Dose-dependent effect
- ED50 (Rattus norvegicus [27]; 1 h): 0.3 mg/kg
- IC50 [32]: > 10 µM
